Reference: patent US7982021B2, “Nucleic acid molecules encoding emission ratiometric indicators of phosphoinositides” (The Johns Hopkins University, priority 2006, dated 2011)

Test system: PIP3 and PI(3,4)P2
Test: FRET emission ratio imaging of InPAkt reporters in NIH3T3 cells upon growth factor stimulation
Assay type: cell-based
Settings: for t1/2 of InPAkt response produced by the growth factor / time to reach plateau of InPAkt response produced by the growth factor / InPAkt emission ratio increase produced by the growth factor: NIH3T3 cells expressing InPAkt; for t1/2 of InPAkt response produced by the growth factor / time to reach plateau of InPAkt response produced by the growth factor: single ligand; for InPAkt emission ratio increase produced by the growth factor: single ligand: 50 ng/ml PDGF, 50 nM IGF-1 or 100 ng/ml insulin; for InPAkt emission ratio increase, sequential stimulation: agonists applied sequentially: insulin; for InPAkt emission ratio increase, sequential stimulation / t1/2 of InPAkt response, sequential stimulation / time of InPAkt emission ratio increase, sequential stimulation: then IGF-1, then PDGF; for t1/2 of InPAkt response, sequential stimulation / time of InPAkt emission ratio increase, sequential stimulation: insulin
Description: Cell Culture. HEK293 and NIH3T3 cells were plated onto sterilized glass coverslips in 35-mm dishes and grown to 50-90% confluency in DMEM (10% FBS) at 37° C. with 5% CO2. Cells were transfected with FUGENE®-6 (Roche), then serum starved for 24-36 h before imaging. Colocalization studies were performed by incubating transfected cells with Hoechst 33342 cell-permeable dyes (Molecular Probes) for staining nucleic acids.
Imaging. Cells were washed twice with Hanks' balanced salt solution buffer and maintained in the dark at room temperature with the addition of 50 ng/ml rat PDGF (Sigma), 100 ng/ml bovine insulin (Calbiochem), 50 nM IGF-1 (Sigma), or 20 μM LY294002 (Sigma) as described. Cells were imaged on a Zeiss Axiovert 200M microscope with a cooled CCD camera MicroMAX BFT512 (Roper Scientific, Trenton, N.J.) controlled by METAFLUOR 6.2 software (Universal Imaging, Downingtown, Pa.). Dual emission ratio imaging used a 420DF20 excitation filter, a 450DRLP dichroic mirror, and two emission filters (475DF40 for CFP and 535DF25 for YFP) alternated by a filter-changer Lambda 10-2 (Sutter Instruments, Novato, Calif.). Exposure time was 50-500 ms, and images were taken every 15-30 s. Fluorescence images were background-corrected by subtracting autofluorescence intensity of untransfected cells (or background with no cells) from the emission intensities of cells expressing fluorescent reporters. The ratios of yellow-to-cyan emissions were then calculated at different time points.
We next checked the ability of this chimera to detect changes in 3′ PIs in response to agonist stimulation. NIH3T3 cells expressing this construct were serum-starved then stimulated with 50 ng/ml platelet-derived growth factor (PDGF). Stimulation of endogenous PDGF receptor (PDGFR) generated a FRET increase, resulting in an increase in the ratio of yellow-to-cyan emissions (FIGS. 1D, 1E), which was detectable within several seconds and reached a plateau of 25.4±3.7% [average±std] […] The FRET change occurred in the plasma membrane and was accompanied by the translocation of the reporter (FIG. 1D), reiterating that 3′ PIs are mainly produced at the plasma membrane (22). To verify that the FRET response is caused by binding of PIP3 and PI(3,4)P2, we generated a variant of the reporter in which two critical residues in the PH domain, Arg23 and Arg25, which mainly contribute to D-3 phosphate recognition (20), are mutated.

[1] = NIH3T3 cells, PDGF first, followed by IGF-1

Substance	t1/2 of InPAkt response produced by the growth factor [min]	time to reach plateau of InPAkt response produced by the growth factor [min]	InPAkt emission ratio increase produced by the growth factor	InPAkt emission ratio response, reversed order of ligand addition [1]	InPAkt emission ratio increase, sequential stimulation (NIH3T3 cells)	t1/2 of InPAkt response, sequential stimulation (NIH3T3 cells) [min]	time of InPAkt emission ratio increase, sequential stimulation (NIH3T3 cells) [min]	t1/2 of InPAkt response, reversed order of ligand addition [1] [min]	time of InPAkt response, reversed order of ligand addition [1] [min]
IGF-1: insulin-like growth factor 1 (Sigma)	5.4 ± 0.4	10 to 12	6.5±0.8%	not enhanced	6.8±0.9%	5.2 ± 0.1	10 to 12		
PDGF	3.45 ± 0.65	5 to 9	25.4±3.7%	24.2 ± 1.5%	14.6±1.4%	3.2 ± 0.2	6 to 7	3.9 ± 0.2	7 to 9
insulin: bovine insulin (Calbiochem)			did not generate any discernable response		did not generate any appreciable change				
